Assay results from EPA's CvTdb concentration-time database.

What was measured:
Assay in all cases: concentration in plasma after dosing
[1] = system: Rat; conditions: dosed: Bromodichloromethane, 10 mg/kg, iv, Female, F344
[2] = system: Rat; conditions: 10 min; dosed: Bromodichloromethane; 10 mg/kg; iv; Male; F344
[3] = system: Rat; conditions: dosed: Bromodichloromethane, 10 mg/kg, iv, Male, F344
[4] = system: Rat; conditions: 1 h; dosed: Bromodichloromethane; 10 mg/kg; iv; Female; F344
[5] = system: Rat; conditions: 1 h; dosed: Bromodichloromethane; 10 mg/kg; iv; Male; F344
[6] = system: Rat; conditions: 1 h; dosed: Bromodichloromethane; 10 mg/kg; iv; Female; F344; remark: listed apart in the source
[7] = system: Rat; conditions: iv
[8] = system: Rat; conditions: dosed: Bromodichloromethane, 10 mg/kg, iv, Male, F344; remark: listed apart in the source
[9] = system: Rat; conditions: dosed: Bromodichloromethane, 10 mg/kg, iv, Male, F344; remark: listed apart in the source
[10] = system: Rat; conditions: dosed: Bromodichloromethane, 10 mg/kg, iv, Female, F344; remark: listed apart in the source
[11] = system: Rat; conditions: 1 h; dosed: Bromodichloromethane; 10 mg/kg; iv; Male; F344; remark: listed apart in the source
[12] = system: Rat; conditions: dosed: Bromodichloromethane, 10 mg/kg, iv, Female, F344; remark: listed apart in the source
[13] = system: Rat; conditions: dosed: Bromodichloromethane, 10 mg/kg, iv, Male, F344; remark: listed apart in the source
[14] = system: Rat; conditions: 10 min; dosed: Bromodichloromethane; 10 mg/kg; iv; Male; F344; remark: listed apart in the source
[15] = system: Rat; conditions: dosed: Bromodichloromethane, 10 mg/kg, iv, Female, F344; remark: listed apart in the source
[16] = system: Rat; conditions: dosed: Bromodichloromethane, 10 mg/kg, iv, Female, F344; remark: listed apart in the source
[17] = system: Rat; conditions: dosed: Bromodichloromethane, 10 mg/kg, iv, Female, F344; remark: listed apart in the source
[18] = system: Rat; conditions: dosed: Bromodichloromethane, 10 mg/kg, iv, Female, F344; remark: listed apart in the source
[19] = system: Rat; conditions: dosed: Bromodichloromethane, 10 mg/kg, iv, Female, F344; remark: listed apart in the source
[20] = system: Rat; conditions: 4 h; dosed: Bromodichloromethane; 10 mg/kg; iv; Male; F344
[21] = system: Rat; conditions: dosed: Bromodichloromethane, 10 mg/kg, iv, Male, F344; remark: listed apart in the source
[22] = system: Rat; conditions: 10 min; dosed: Bromodichloromethane; 10 mg/kg; iv; Female; F344
[23] = system: Rat; conditions: dosed: Bromodichloromethane, 10 mg/kg, iv, Male, F344; remark: listed apart in the source
[24] = system: Rat; conditions: dosed: Bromodichloromethane, 10 mg/kg, iv, Female, F344; remark: listed apart in the source
[25] = system: Rat; conditions: dosed: Bromodichloromethane, 10 mg/kg, iv, Female, F344; remark: listed apart in the source
[26] = system: Rat; conditions: dosed: Bromodichloromethane, 10 mg/kg, iv, Male, F344; remark: listed apart in the source
[27] = system: Rat; conditions: 5 min; dosed: Di-n-butyl phthalate; 20 mg/kg; iv; Male; Sprague-Dawley
[28] = system: Rat; conditions: 10 min; dosed: Di-n-butyl phthalate; 20 mg/kg; iv; Male; Sprague-Dawley
[29] = system: Rat; conditions: 10 min; dosed: Di-n-butyl phthalate; 20 mg/kg; iv; Male; Sprague-Dawley; remark: listed apart in the source
[30] = system: Rat; conditions: 5 min; dosed: Di-n-butyl phthalate; 20 mg/kg; iv; Male; Sprague-Dawley; remark: listed apart in the source

## ClC(Cl)Br [Bromodichloromethane]
[1]; 0.25 h
  concentration in plasma: 44.5 ng/mL
[1]; 8 h
  concentration in plasma: 6.93 ng/mL
[2]
  concentration in plasma: 1310 ng/mL
[3]; 0.25 h
  concentration in plasma: 535 ng/mL
[3]; 8 h
  concentration in plasma: 6.97 ng/mL
[4]
  concentration in plasma: 92.4 ng/mL
[5]
  concentration in plasma: 151 ng/mL
[6]
  concentration in plasma: 68 ng/mL
[7]; 2 min, dosed: Bromodichloromethane, 10 mg/kg, Female, F344
  concentration in plasma: 2590 ng/mL
[7]; 2 min, dosed: Bromodichloromethane, 10 mg/kg, Male, F344
  concentration in plasma: 2820 ng/mL
[7]; 5 min, dosed: Bromodichloromethane, 10 mg/kg, Female, F344
  concentration in plasma: 1170 ng/mL
[7]; 5 min, dosed: Bromodichloromethane, 10 mg/kg, Male, F344
  concentration in plasma: 1100 ng/mL
[7]; 10 min, dosed: Bromodichloromethane, 10 mg/kg, Female, F344
  concentration in plasma: 589 ng/mL
[7]; 10 min, dosed: Bromodichloromethane, 10 mg/kg, Male, F344
  concentration in plasma: 1070 ng/mL
[7]; 0.25 h, dosed: Bromodichloromethane, 10 mg/kg, Female, F344
  concentration in plasma: 70.4 ng/mL
[7]; 0.25 h, dosed: Bromodichloromethane, 10 mg/kg, Male, F344
  concentration in plasma: 1070 ng/mL
[7]; 0.5 h, dosed: Bromodichloromethane, 10 mg/kg, Female, F344
  concentration in plasma: 312 ng/mL
[7]; 0.5 h, dosed: Bromodichloromethane, 10 mg/kg, Male, F344
  concentration in plasma: 220 ng/mL
[7]; 1 h, dosed: Bromodichloromethane, 10 mg/kg, Female, F344
  concentration in plasma: 62.1 ng/mL
[7]; 1 h, dosed: Bromodichloromethane, 10 mg/kg, Male, F344
  concentration in plasma: 105 ng/mL
[7]; 2 h, dosed: Bromodichloromethane, 10 mg/kg, Female, F344
  concentration in plasma: 63.4 ng/mL
[7]; 2 h, dosed: Bromodichloromethane, 10 mg/kg, Male, F344
  concentration in plasma: 60.8 ng/mL
[7]; 4 h, dosed: Bromodichloromethane, 10 mg/kg, Female, F344
  concentration in plasma: 7.81 ng/mL
[7]; 4 h, dosed: Bromodichloromethane, 10 mg/kg, Male, F344
  concentration in plasma: 15.7 ng/mL
[7]; 6 h, dosed: Bromodichloromethane, 10 mg/kg, Female, F344
  concentration in plasma: 7.86 ng/mL
[7]; 6 h, dosed: Bromodichloromethane, 10 mg/kg, Male, F344
  concentration in plasma: 31.4 ng/mL
[7]; 8 h, dosed: Bromodichloromethane, 10 mg/kg, Female, F344
  concentration in plasma: 6.28 ng/mL
[7]; 8 h, dosed: Bromodichloromethane, 10 mg/kg, Male, F344
  concentration in plasma: 4.65 ng/mL
[7]; 12 h, dosed: Bromodichloromethane, 10 mg/kg, Male, F344
  concentration in plasma: 3.96 ng/mL
[8]; 0.5 h
  concentration in plasma: 402 ng/mL
[8]; 2 h
  concentration in plasma: 42.5 ng/mL
[9]; 0.25 h
  concentration in plasma: 1340 ng/mL
[9]; 8 h
  concentration in plasma: 3.44 ng/mL
[10]; 0.5 h
  concentration in plasma: 203 ng/mL
[10]; 4 h
  concentration in plasma: 13.8 ng/mL
[11]
  concentration in plasma: 186 ng/mL
[12]; 0.5 h
  concentration in plasma: 307 ng/mL
[12]; 2 h
  concentration in plasma: 40.2 ng/mL
[13]; 5 min
  concentration in plasma: 2210 ng/mL
[13]; 2 h
  concentration in plasma: 56.3 ng/mL
[14]
  concentration in plasma: 1640 ng/mL
[15]; 2 min
  concentration in plasma: 2280 ng/mL
[15]; 6 h
  concentration in plasma: 8.65 ng/mL
[16]; 2 min
  concentration in plasma: 1680 ng/mL
[16]; 6 h
  concentration in plasma: 11.9 ng/mL
[17]; 0.25 h
  concentration in plasma: 341 ng/mL
[17]; 8 h
  concentration in plasma: 10.7 ng/mL
[18]; 10 min
  concentration in plasma: 926 ng/mL
[18]; 2 h
  concentration in plasma: 18.4 ng/mL
[19]; 0.5 h
  concentration in plasma: 67.9 ng/mL
[19]; 2 h
  concentration in plasma: 87.6 ng/mL
[20]
  concentration in plasma: 11.1 ng/mL
[21]; 2 min
  concentration in plasma: 3310 ng/mL
[21]; 6 h
  concentration in plasma: 26.3 ng/mL
[22]
  concentration in plasma: 779 ng/mL
[23]; 5 min
  concentration in plasma: 2570 ng/mL
[23]; 4 h
  concentration in plasma: 21.8 ng/mL
[24]; 5 min
  concentration in plasma: 2300 ng/mL
[24]; 4 h
  concentration in plasma: 9.88 ng/mL
[25]; 0.25 h
  concentration in plasma: 618 ng/mL
[25]; 8 h
  concentration in plasma: 3.69 ng/mL
[26]; 2 min
  concentration in plasma: 2880 ng/mL
[26]; 6 h
  concentration in plasma: 16.1 ng/mL

## CCCCOC(=O)c1ccccc1C(=O)OCCCC [Di-n-butyl phthalate]
[27]
  concentration in plasma: 1210 ng/mL
[7]; 5 min, dosed: Di-n-butyl phthalate, 20 mg/kg, Male, Sprague-Dawley
  concentration in plasma: 9370 ng/mL
[7]; 10 min, dosed: Di-n-butyl phthalate, 20 mg/kg, Male, Sprague-Dawley
  concentration in plasma: 3520 ng/mL
[7]; 20 min, dosed: Di-n-butyl phthalate, 20 mg/kg, Male, Sprague-Dawley
  concentration in plasma: 957 ng/mL
[28]
  concentration in plasma: 2950 ng/mL
[29]
  concentration in plasma: 4220 ng/mL
[30]
  concentration in plasma: 10700 ng/mL
